“Also recorded” adds a separate entry of the source.
Columns and labels:
P2ry12 [1] = target: T1, P2ry12 (Homo sapiens, UniProt Q9H244); assay: ADP trans-well migration assay; format: cell-based; conditions: pre-exposure 50 μM, 1 hr; ADP 100 μM
T1 construct: iMGLs express the microglial-enriched purinergic receptor P2ry12; endogenous in cells; host or cells: iMGLs (human iPSC-derived microglia-like cells)
Method: Trans-well migration assays to ADP was performed as previously described (De Simone et al., 2010; Moore et al., 2015). iMGLs (5.5×10^4 cells/well) were cultured in serum-free basal media without cytokines for 1hour. Next, iMGLS were pre-exposed to DMSO or PSB0739 (50 μM, Tocris) for 1 hr at 37° C. in 5% CO2 cell culture incubator. Cells were then washed three times with basal medium and plated in trans-well migration chambers (5 μm polycarbonate inserts in 24 wells; Corning) containing […] (ADP, 100 μM; Sigma) in the bottom chamber in 37° C. in 5% CO2. After 4 hours, cells were washed three times and fixed in PFA (4%) for 15 minutes at room temperature. Cells were stained with Hoechst stain for 10 mins to visualize nuclei of cells. A blinded observer counted total cells per slide and then scrubbed cells off top surface, washed with PBS, and recounted to record migrated cells. Migration was reported as migrated over total cells per well. Fluorescent images of cells were captured using Olympus IX71 inverted microscope. […] […]

P2ry12 [2] = target: T1, P2ry12; assay: ADP calcium imaging (Fura-2-AM, I340/I380); format: cell-based; conditions: 50 μM, 1 hour; ADP 10 μM
Method: For calcium imaging, iMGLs were plated on poly-L-lysine-coated coverslips and 1 hour later were incubated with Fura-2-AM (Molecular Probes) calcium dye diluted in Ringer solution containing (in mM): NaCl 140, KCl 4.5, CaCl2 2, MgCl2 1, HEPES 10, glucose 10, sucrose 5, pH=7.4. After a 1-hour incubation, the dye was washed out 3 times using Ringer solution and treated for 1 hour with either P2RY12 inhibitor PSB0739 (50 μM, Tocris) or Vehicle (DMSO) and used for experiments. Baseline Ca^2+ signal (I340/I380) were measured for more than 100 s and then ADP (10 μM) was introduced under stead flow after baseline measurement. Ca^2+ recordings were performed on Zeiss (Axiovert 35)-based imaging setup and data acquisition was conducted with Metafluor software (Molecular Devices). Data analysis was performed using Metafluor, Origin Pro, and Prism 6.0.

iMGLs [3] = assay: Mesoscale multiplex cytokine and chemokine assay of iMGL conditioned media; format: cell-based, human; conditions: for CCL2 secretion, mean ± SE / CCL3 secretion, mean ± SE / CCL4 secretion, mean ± SE / CCL17 secretion, mean ± SE / CXCL10 secretion, mean ± SE / IL1A secretion, mean ± SE / IL6 secretion, mean ± SE / IL8 secretion, mean ± SE / IL10 secretion, mean ± SE / TNFA secretion, mean ± SE: iMGLs stimulated 24 h, IFNγ 20 ng/ml, IL-1β 20 ng/ml or LPS 100 ng/ml; for TNFA secretion, mean ± SE: n=3 wells/group; for cytokines/chemokines secreted by iMGLs in response to the stimulus: of the 10 examined cytokines, 24 h
Method: iMGLs culture media was replaced with basal media for 2 hours prior to stimulation with IFNγ (20 ng/ml), IL1β (20 ng/ml), and LPS (100 ng/ml) for 24 hours, after which cells were collected for RNA and conditioned media assessed for cytokine secretion. To simultaneously assess multiple cytokine and chemokine analytes from iMGL conditioned media, conditioned media from each treatment group was processed and analyzed using the V-PLEX human cytokine 30-plex kit (Mesoscale) according to the manufacturer protocol.

iMGLs [4] = assay: RNA-seq differential gene expression of iMGLs with or without TGFβ; format: cell-based, human
Method: Cells were harvested and washed three times with DPBS and stored in RNAlater, RNA preservation solution. RNA was extracted from all cell types using RNeasy Mini Kit (Qiagen) following manufacturer's guidelines. RNA integrity (RIN) was measured for all samples using the Bioanalzyer Agilent 2100 series. All sequencing libraries analyzed were generated from RNA samples measuring a RIN score≥9. The Illumina TruSeq mRNA stranded protocol was used to obtain poly-A mRNA from all samples. 200 ng of isolated mRNA was used to construct RNA-seq libraries. Libraries were quantified and normalized using the Library Quantification Kit from Kapa Biosystems and sequenced as paired-end 100 bp reads on the Illumina HiSeq 2500 platform.
RNA-seq reads were mapped to the hg38 reference genome using STAR aligner and mapped to Gencode version 24 gene annotations using RSEM. Genes with expression (<1 FPKM) across all samples were filtered from all subsequent analysis. Differential gene expression analysis was performed on TMM normalized counts with EdgeR (Robinson et al., 2010). Multiple biological replicates were used for all comparative analysis. A p-value≤0.001 and a 2-fold change in expression were used in determining significant differentially expressed genes for respective comparisons. PCA analysis was performed using the R package rgl and plotted using plot3d. […]

T1 sequence (Q9H244 whole entry): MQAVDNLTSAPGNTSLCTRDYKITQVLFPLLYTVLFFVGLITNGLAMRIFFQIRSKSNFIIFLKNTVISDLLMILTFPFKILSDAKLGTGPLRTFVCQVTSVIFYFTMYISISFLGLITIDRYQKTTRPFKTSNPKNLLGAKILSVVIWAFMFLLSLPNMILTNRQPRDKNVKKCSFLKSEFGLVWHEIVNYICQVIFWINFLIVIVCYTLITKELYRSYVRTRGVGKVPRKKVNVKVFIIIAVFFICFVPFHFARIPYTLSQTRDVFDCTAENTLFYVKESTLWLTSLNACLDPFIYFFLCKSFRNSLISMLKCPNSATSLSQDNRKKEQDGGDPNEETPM

Row | effect on ADP-induced calcium flux in iMGLs (P2ry12 [2]) | Molecule | effect on ADP-induced iMGL migration (P2ry12 [1]) | CCL2 secretion, mean ± SE (iMGLs [3]) | CCL3 secretion, mean ± SE (iMGLs [3]) | CCL4 secretion, mean ± SE (iMGLs [3]) | CCL17 secretion, mean ± SE (iMGLs [3]) | CXCL10 secretion, mean ± SE (iMGLs [3]) | IL1A secretion, mean ± SE (iMGLs [3]) | IL6 secretion, mean ± SE (iMGLs [3]) | IL8 secretion, mean ± SE (iMGLs [3]) | IL10 secretion, mean ± SE (iMGLs [3]) | TNFA secretion, mean ± SE (iMGLs [3]) | cytokines/chemokines secreted by iMGLs in response to the stimulus (iMGLs [3]) | genes differentially expressed in iMGLs after TGFβ removal (iMGLs [4]; TGFβ removal (24 hours)) | genes differentially expressed (increased) in iMGLs with TGFβ (iMGLs [4]; presence of TGFβ)
1 | negated | Nc1c(S(=O)(=O)O)cc(Nc2ccc(Nc3ccccc3)c(S(=O)(=O)O)c2)c2c1C(=O)c1ccccc1C2=O [PSB0739] | negated; also recorded: completely abrogates ADP-induced iMGL migration |  |  |  |  |  |  |  |  |  |  |  |  | 
2 |  | IFNγ: cytokine used to stimulate iMGLs (20 ng/ml) |  | 993.26 ± 55.76 | 295.39 ± 19.72 | 4,514.72 ± 10.01^ | 25.82 ± 1.98 | 0.00 ± 0.00 | 1.48 ± 0.25 | 12.22 ± 1.44 | 3549.05 ± 181.22 | 4.59 ± 2.35 | 58.82 ± 8.80 | 8 |  | 
3 |  | IL-1β: cytokine used to stimulate iMGLs (20 ng/ml) |  | 275.98 ± 19.54 | 556.24 ± 54.01 | 4,492.26 ± 51.35^ | 21.75 ± 1.94 | 69.49 ± 4.73 | 4.89 ± 1.45 | 13.92 ± 0.41 | 3,004.54 ± 47.58^ | 4.42 ± 1.33 | 29.74 ± 0.65 | 8 |  | 
4 |  | Lipopolysaccharide [LPS] |  | 5,695.46 ± 275.72 | 0.00 ± 0.00 | 4,594.57 ± 33.96^ | 92.96 ± 7.70 | 73.72 ± 4.53 | 30.55 ± 2.19 | 274.39 ± 15.25 | 4,347.96 ± 75.61^ | 31.31 ± 1.52 | 116.49 ± 9.77 | induction of all measured cytokines except for CCL3 |  | 
5 |  | TGFβ: glia-derived cytokine in iMGL differentiation media (50 ng/ml) |  |  |  |  |  |  |  |  |  |  |  |  | 1517 genes | 1262 genes

From patent US20240417684A1, “DIFFERENTIATION AND USE OF HUMAN MICROGLIA-LIKE CELLS FROM PLURIPOTENT STEM CELLS AND HEMATOPOIETIC PROGENITORS” (THE REGENTS OF THE UNIVERSITY OF CALIFORNIA, priority 2017, published 2024)
